# What was measured:
# [1] = tested on: Bacillus subtilis CJKB0002 (KCCM-10446); experiment: Evaluation of resistance against DL-β-hydroxynorvaline (growth in DL-β-hydroxynorvaline-containing minimal medium); type: cell-based; set-up: key to growth of strain: +: growth; −: not growth; settings: for growth of strain: 30° C., 5 days
# Procedure: (§1) In this example, in order to evaluate resistance to DL-β-hydroxynorvaline, the Bacillus subtilis CJKB0002 (KCCM-10446) of Example 1 and the Bacillus subtilis AS5 as the parent strain were cultured in various concentrations of DL-β-hydroxynorvaline-containing media. In detail, respective strains were inoculated onto DL-β-hydroxynorvaline-containing media as shown in Table 1 and cultured at 30° C. for 5 days. In this case, the concentration of DL-β-hydroxynorvaline ranged from 0 to 350 mg/l.
# [2] = tested on: Bacillus subtilis AS5; experiment: as above; type: cell-based; set-up: key to growth of strain: +: growth; −: not growth; settings: for growth of strain: 30° C., 5 days
# Procedure: as §1
smiles,measurement,setting,value
CCC(O)C(N)C(=O)O (racemic) [DL-β-hydroxynorvaline],growth of strain,[1]; 250 mg/l DL-β-hydroxynorvaline,+
same,growth of strain,[1]; 300 mg/l DL-β-hydroxynorvaline,−
same,growth of strain,[1]; 350 mg/l DL-β-hydroxynorvaline,−
same,enhanced resistance to threonine analogue compared to Bacillus subtilis AS5,[1]; CJKB0002 versus AS5,five times
same,concentration of DL-β-hydroxynorvaline in which the strain can grow,[1]; mutant CJKB0002,≤ 250 mg/L
same,growth of strain,[2]; 50 mg/l DL-β-hydroxynorvaline,+
same,growth of strain,[2]; 100 mg/l DL-β-hydroxynorvaline,−
same,growth of strain,[2]; 200 mg/l DL-β-hydroxynorvaline,−
same,growth of strain,[2]; 250 mg/l DL-β-hydroxynorvaline,−
same,growth of strain,[2]; 300 mg/l DL-β-hydroxynorvaline,−
same,growth of strain,[2]; 350 mg/l DL-β-hydroxynorvaline,−
same,concentration of DL-β-hydroxynorvaline in which the strain cannot grow,[2]; parent strain AS5,more than 50 mg/l
